Paper PMC8815882, “Screening the pandemic response box identified benzimidazole carbamates, Olorofim and ravuconazole as promising drug candidates for the treatment of eumycetoma” (PLoS Neglected Tropical Diseases, 2022)
Several values for one entry are separate records, joined by “and”; a condition that tells them apart may be missing. Equal entries are not always repeated. Where two headings read alike, the source gives them in different places.

Test system: M. mycetomatis genome strain MM55
Assay: CLSI M38-A2 based in vitro susceptibility screening (XTT or resazurin), growth at fixed concentration
Format: cell-based, Madurella mycetomatis
Details: for activity at 25 µM / activity at 100 µM / Percent fungal survival at 100 µM: Madurella mycetomatis; for Percent fungal survival at 100 µM: read-out: Percentage survival at 100um, 100 uM A (second replicate column)
[1] = 25 uM, mean, read-out: Percentage survival at 25um, 25 uM mean
[2] = 25 uM, replicate A, read-out: Percentage survival at 25um, 25 um A
[3] = 25 uM, replicate B, read-out: Percentage survival at 25um, 25 uM B
[4] = 25 uM, replicate C, read-out: Percentage survival at 25um, 25 uM C
[5] = 100 uM, mean, read-out: Percentage survival at 100um, 100 uM mean
[6] = 100 uM, replicate (first column), read-out: Percentage survival at 100um, 100 uM A
[7] = 100 uM, replicate (second column), read-out: Percentage survival at 100um, 100 uM A
[8] = 100 uM, replicate (third column), read-out: Percentage survival at 100um, 100 uM A
[9] = 25 uM, mean of three replicates, read-out: Percentage survival at 25um, 25 uM mean
[10] = 100 uM, first replicate column, read-out: Percentage survival at 100um, 100 uM A
[11] = 100 uM, mean of three replicates, read-out: Percentage survival at 100um, 100 uM mean
[12] = 100 uM, second replicate column, read-out: Percentage survival at 100um, 100 uM A
[13] = 100 uM, third replicate column, read-out: Percentage survival at 100um, 100 uM A
[14] = 100 uM, replicate 1, read-out: Percentage survival at 100um, 100 uM A (first replicate column)
[15] = 100 uM, replicate 3, read-out: Percentage survival at 100um, 100 uM A (third replicate column)
[16] = 25 uM, mean of three, M. mycetomatis MM55, read-out: Percentage survival at 25um, 25 uM mean
[17] = 25 uM, replicate A, M. mycetomatis MM55, read-out: Percentage survival at 25um, 25 um A
[18] = 25 uM, replicate B, M. mycetomatis MM55, read-out: Percentage survival at 25um, 25 uM B
[19] = 25 uM, replicate C, M. mycetomatis MM55, read-out: Percentage survival at 25um, 25 uM C
[20] = 100 uM, mean of three, M. mycetomatis MM55, read-out: Percentage survival at 100um, 100 uM mean
[21] = 100 uM, replicate 1, M. mycetomatis MM55, read-out: Percentage survival at 100um, 100 uM A (first replicate column)
[22] = 100 uM, replicate 2, M. mycetomatis MM55
[23] = 100 uM, replicate 3, M. mycetomatis MM55, read-out: Percentage survival at 100um, 100 uM A (third replicate column)
[24] = 25 uM, mean of replicates, read-out: Percentage survival at 25um, 25 uM mean
[25] = 100 uM, mean of replicates, read-out: Percentage survival at 100um, 100 uM mean
[26] = 100 uM, replicate 1, read-out: Percentage survival at 100um, 100 uM A
[27] = 100 uM, replicate 2, read-out: Percentage survival at 100um, 100 uM A
[28] = 100 uM, replicate 3, read-out: Percentage survival at 100um, 100 uM A

In the case of `CC[C@H](CO)Nc1nc(NCc2ccccc2)c2ncn(C(C)C)c2n1` [MMV003820], the “Percentage survival at 100um, 100 uM A” value was 50.7482% and 60.4702%, the activity at 25 µM (read-out: Percentage survival at 25um, 25 uM B) was 62.4% and the activity at 25 µM (read-out: Percentage survival at 25um, 25 uM C) was 43.5%. It also gave an activity at 25 µM (read-out: Percentage survival at 25um, 25 uM mean) of 63.8%, an activity at 25 µM (read-out: Percentage survival at 25um, 25 um A) of 85.5% and an activity at 100 µM (read-out: Percentage survival at 100um, 100 uM A) of 48.1%. The activity at 100 µM (read-out: Percentage survival at 100um, 100 uM mean) was 53.1%.

In the case of `Nc1nc(O)ncc1F` [MMV004508], the activity at 25 µM [1] was 84%, the activity at 25 µM [2] was 87.6% and the activity at 25 µM [3] was 87.9%. It also gave an activity at 25 µM [4] of 76.6%, an activity at 100 µM [5] of 89.4% and an activity at 100 µM [6] of 93.5%. The activity at 100 µM [7] was 81.4% and the activity at 100 µM [8] was 93.4%.

`Cc1[nH]c2ccccc2c1CCNCc1ccc(/C=C/C(=O)NO)cc1` [MMV010036] showed an activity at 25 µM [9] of 90.9%, an activity at 25 µM [2] of 98.2% and an activity at 25 µM [3] of 95.9%. For the same compound, the activity at 25 µM [4] was 78.7%, the activity at 100 µM [10] was 85.9% and the activity at 100 µM [11] was 77.1%. It also gave an activity at 100 µM [12] of 69.6% and an activity at 100 µM [13] of 75.6%.

In the case of `COc1ccc2nc(-c3ccccc3)cc(O)c2c1` [MMV011565], the activity at 25 µM [9] was 93.4%, the activity at 25 µM [2] was 91.4% and the activity at 25 µM [3] was 96.2%. For the same compound, the activity at 25 µM [4] was 92.7%, the activity at 100 µM [11] was 78.1% and the activity at 100 µM [14] was 74.5%. It also gave a Percent fungal survival at 100 µM (100 uM, replicate 2) of 80.2% and an activity at 100 µM [15] of 79.6%.

In the case of `O=C(O)c1cc(-c2ccccc2)nc2ccccc12` [MMV018362], the activity at 25 µM [9] was 91.7%, the activity at 25 µM [2] was 97.4% and the activity at 25 µM [3] was 94.7%. The activity at 25 µM [4] was 83%, the activity at 100 µM [10] was 91% and the activity at 100 µM [11] was 87.9%. The activity at 100 µM [12] was 79.7% and the activity at 100 µM [13] was 93.1%.

Work on `CN1CCN(c2ccc3[nH]c(-c4ccc5[nH]c(-c6ccc(O)cc6)nc5c4)nc3c2)CC1` [MMV020752] yielded an activity at 25 µM [16] of 67.2%, an activity at 25 µM [17] of 67.7% and an activity at 25 µM [18] of 71.6%. The activity at 25 µM [19] was 62.2%, the activity at 100 µM [20] was 24.3% and the activity at 100 µM [21] was 53.4%. For the same compound, the Percent fungal survival at 100 µM [22] was 14.6% and the activity at 100 µM [23] was 4.7%.

`Nc1nc(N)c2c(Sc3ccccc3)cccc2n1` [MMV021759] was tested, and the activity at 25 µM [24] was 88.1%, the activity at 25 µM [2] was 63.3% and the activity at 25 µM [3] was 65.8%. For the same compound, the activity at 25 µM [4] was 135%, the activity at 100 µM [25] was 5.59% and the activity at 100 µM [26] was -1.97%. The activity at 100 µM [27] was 5.6% and the activity at 100 µM [28] was 13.1%.

Compound `Cc1nc(Nc2ccc(F)cc2)nc(N2CCc3ccccc3C2C)c1C` (stereo not drawn) [MMV030787] has an activity at 25 µM [1] of 63.9%, an activity at 25 µM [2] of 74.6% and an activity at 25 µM [3] of 56.2%. For the same compound, the activity at 25 µM [4] was 61.1%, the activity at 100 µM [5] was 67.5% and the activity at 100 µM [6] was 53.1%. It also gave an activity at 100 µM [7] of 63.5% and an activity at 100 µM [8] of 86%.

`Nc1nnc(-c2ccc(Cl)cc2)s1` [MMV046261] showed an activity at 25 µM [24] of 82.4%, an activity at 25 µM [2] of 77.9% and an activity at 25 µM [3] of 83%. For the same compound, the activity at 25 µM [4] was 86.2%, the activity at 100 µM [25] was 69.4% and the activity at 100 µM [26] was 62.5%. The activity at 100 µM [27] was 72.1% and the activity at 100 µM [28] was 73.6%.

`NC(=O)c1c(N)sc2c1CCCCC2` [MMV056052] was tested, and the activity at 25 µM [9] was 95.4%, the activity at 25 µM [2] was 93.9% and the activity at 25 µM [3] was 104%. For the same compound, the activity at 25 µM [4] was 87.9%, the activity at 100 µM [11] was 84.7% and the activity at 100 µM [14] was 86.2%. The Percent fungal survival at 100 µM (100 uM, replicate 2) was 80.1% and the activity at 100 µM [15] was 87.9%.

`CC1CN(c2ncnc3c2c(-c2ccccc2)cn3-c2ccc(F)cc2)CC(C)O1` (stereo not drawn) [MMV093250] gave an activity at 25 µM [16] of 63.7%, an activity at 25 µM [17] of 69.5% and an activity at 25 µM [18] of 65.3%. It also gave an activity at 25 µM [19] of 56.2%, an activity at 100 µM [20] of 70% and an activity at 100 µM [21] of 65.7%. For the same compound, the Percent fungal survival at 100 µM [22] was 80.7% and the activity at 100 µM [23] was 63.6%.
